Experimental data: ChEMBL document CHEMBL5331073, “Discovery of novel 7,7-dimethyl-6,7-dihydro-5H-pyrrolo[3,4-d]pyrimidines as ATR inhibitors based on structure-based drug design” (Eur J Med Chem, 2023)
One block for each compound: values may come before it.

Legend:
[1] = target: Serine/threonine-protein kinase ATR (Homo sapiens, UniProt Q13535); experiment: Inhibition of ATR (unknown origin) using peptide as substrate preincubated for 10 mins followed by substrate addition by microplate reader analysis
HT-29 = experiment: Antiproliferative activity against ATM-proficient human HT-29 cells assessed as reduction in cell proliferation incubated for 3 days by MTT assay; type: functional, cell-based; conditions: HT-29, 72 h
LoVo [2] = experiment: Antiproliferative activity against ATM-deficient human LoVo cells assessed as reduction in cell proliferation incubated for 3 days by MTT assay; type: functional, cell-based; conditions: 72 h
LoVo [3] = experiment: Antiproliferative activity against ATM-deficient human LoVo cells assessed as reduction in cell proliferation at 0.2 uM incubated for 3 days by MTT assay; type: functional; design: scale not given: the % may be the effect or the level left; conditions: time 3 day
in vitro [4] = conditions: rat, liver microsomes
in vitro [5] = conditions: human, liver microsomes
in vitro [6] = conditions: rat, liver microsomes; remark: listed apart in the source
in vitro [7] = conditions: human, liver microsomes; remark: listed apart in the source
in vitro [8] = conditions: rat, liver microsomes; remark: listed apart in the source
in vitro [9] = conditions: human, liver microsomes; remark: listed apart in the source
[10] = MRT (0 to infinity) in Sprague-Dawley rat at 5 mg/kg, po and measured upto 24 hrs by LC-MS analysis; type: ADME, organism-based; conditions: in vivo
[11] = MRT(t) in Sprague-Dawley rat at 5 mg/kg, po and measured upto 24 hrs by LC-MS analysis; type: ADME, organism-based; conditions: in vivo
[12] = Cmax in Sprague-Dawley rat at 5 mg/kg, po and measured upto 24 hrs by LC-MS analysis; type: ADME, organism-based; design: time < 24 hrs, dose 5 mg/kg, route po; conditions: in vivo
[13] = MRT(t) in Sprague-Dawley rat at 1 mg/kg, iv and measured upto 24 hrs by LC-MS analysis; type: ADME, organism-based; conditions: in vivo
[14] = Half life in Sprague-Dawley rat at 1 mg/kg, iv and measured upto 24 hrs by LC-MS analysis; type: ADME, organism-based; conditions: in vivo
[15] = Tmax in Sprague-Dawley rat at 5 mg/kg, po and measured upto 24 hrs by LC-MS analysis; type: ADME, organism-based; conditions: in vivo
[16] = Volume of distribution at steady state in Sprague-Dawley rat at 1 mg/kg, iv and measured upto 24 hrs by LC-MS analysis; type: ADME, organism-based; conditions: in vivo, read-out: Vdss
[17] = AUCt in Sprague-Dawley rat at 5 mg/kg, po and measured upto 24 hrs by LC-MS analysis; type: ADME, organism-based; design: time < 24 hrs, dose 5 mg/kg, route po; conditions: in vivo
[18] = Oral bioavailability in Sprague-Dawley rat at 5 mg/kg and measured upto 24 hrs by LC-MS analysis; type: ADME, organism-based; conditions: in vivo
[19] = Clearance in Sprague-Dawley rat at 1 mg/kg, iv and measured upto 24 hrs by LC-MS analysis; type: ADME, organism-based; conditions: in vivo
[20] = AUC (0 to infinity) in Sprague-Dawley rat at 5 mg/kg, po and measured upto 24 hrs by LC-MS analysis; type: ADME, organism-based; design: time < 24 hrs, dose 5 mg/kg, route po; conditions: in vivo
[21] = MRT (0 to infinity) in Sprague-Dawley rat at 1 mg/kg, iv and measured upto 24 hrs by LC-MS analysis; type: ADME, organism-based; conditions: in vivo
[22] = AUCt in Sprague-Dawley rat at 1 mg/kg, iv and measured upto 24 hrs by LC-MS analysis; type: ADME, organism-based; design: dose 1 mg/kg, time < 24 hrs, route iv; conditions: in vivo
[23] = AUC(0 to infinity) in Sprague-Dawley rat at 1 mg/kg, iv and measured upto 24 hrs by LC-MS analysis; type: ADME, organism-based; design: time < 24 hrs, dose 1 mg/kg, route iv; conditions: in vivo
[24] = Half life in Sprague-Dawley rat at 5 mg/kg, po and measured upto 24 hrs by LC-MS analysis; type: ADME, organism-based; conditions: in vivo

Chain of Serine/threonine-protein kinase ATR (Q13535 whole entry): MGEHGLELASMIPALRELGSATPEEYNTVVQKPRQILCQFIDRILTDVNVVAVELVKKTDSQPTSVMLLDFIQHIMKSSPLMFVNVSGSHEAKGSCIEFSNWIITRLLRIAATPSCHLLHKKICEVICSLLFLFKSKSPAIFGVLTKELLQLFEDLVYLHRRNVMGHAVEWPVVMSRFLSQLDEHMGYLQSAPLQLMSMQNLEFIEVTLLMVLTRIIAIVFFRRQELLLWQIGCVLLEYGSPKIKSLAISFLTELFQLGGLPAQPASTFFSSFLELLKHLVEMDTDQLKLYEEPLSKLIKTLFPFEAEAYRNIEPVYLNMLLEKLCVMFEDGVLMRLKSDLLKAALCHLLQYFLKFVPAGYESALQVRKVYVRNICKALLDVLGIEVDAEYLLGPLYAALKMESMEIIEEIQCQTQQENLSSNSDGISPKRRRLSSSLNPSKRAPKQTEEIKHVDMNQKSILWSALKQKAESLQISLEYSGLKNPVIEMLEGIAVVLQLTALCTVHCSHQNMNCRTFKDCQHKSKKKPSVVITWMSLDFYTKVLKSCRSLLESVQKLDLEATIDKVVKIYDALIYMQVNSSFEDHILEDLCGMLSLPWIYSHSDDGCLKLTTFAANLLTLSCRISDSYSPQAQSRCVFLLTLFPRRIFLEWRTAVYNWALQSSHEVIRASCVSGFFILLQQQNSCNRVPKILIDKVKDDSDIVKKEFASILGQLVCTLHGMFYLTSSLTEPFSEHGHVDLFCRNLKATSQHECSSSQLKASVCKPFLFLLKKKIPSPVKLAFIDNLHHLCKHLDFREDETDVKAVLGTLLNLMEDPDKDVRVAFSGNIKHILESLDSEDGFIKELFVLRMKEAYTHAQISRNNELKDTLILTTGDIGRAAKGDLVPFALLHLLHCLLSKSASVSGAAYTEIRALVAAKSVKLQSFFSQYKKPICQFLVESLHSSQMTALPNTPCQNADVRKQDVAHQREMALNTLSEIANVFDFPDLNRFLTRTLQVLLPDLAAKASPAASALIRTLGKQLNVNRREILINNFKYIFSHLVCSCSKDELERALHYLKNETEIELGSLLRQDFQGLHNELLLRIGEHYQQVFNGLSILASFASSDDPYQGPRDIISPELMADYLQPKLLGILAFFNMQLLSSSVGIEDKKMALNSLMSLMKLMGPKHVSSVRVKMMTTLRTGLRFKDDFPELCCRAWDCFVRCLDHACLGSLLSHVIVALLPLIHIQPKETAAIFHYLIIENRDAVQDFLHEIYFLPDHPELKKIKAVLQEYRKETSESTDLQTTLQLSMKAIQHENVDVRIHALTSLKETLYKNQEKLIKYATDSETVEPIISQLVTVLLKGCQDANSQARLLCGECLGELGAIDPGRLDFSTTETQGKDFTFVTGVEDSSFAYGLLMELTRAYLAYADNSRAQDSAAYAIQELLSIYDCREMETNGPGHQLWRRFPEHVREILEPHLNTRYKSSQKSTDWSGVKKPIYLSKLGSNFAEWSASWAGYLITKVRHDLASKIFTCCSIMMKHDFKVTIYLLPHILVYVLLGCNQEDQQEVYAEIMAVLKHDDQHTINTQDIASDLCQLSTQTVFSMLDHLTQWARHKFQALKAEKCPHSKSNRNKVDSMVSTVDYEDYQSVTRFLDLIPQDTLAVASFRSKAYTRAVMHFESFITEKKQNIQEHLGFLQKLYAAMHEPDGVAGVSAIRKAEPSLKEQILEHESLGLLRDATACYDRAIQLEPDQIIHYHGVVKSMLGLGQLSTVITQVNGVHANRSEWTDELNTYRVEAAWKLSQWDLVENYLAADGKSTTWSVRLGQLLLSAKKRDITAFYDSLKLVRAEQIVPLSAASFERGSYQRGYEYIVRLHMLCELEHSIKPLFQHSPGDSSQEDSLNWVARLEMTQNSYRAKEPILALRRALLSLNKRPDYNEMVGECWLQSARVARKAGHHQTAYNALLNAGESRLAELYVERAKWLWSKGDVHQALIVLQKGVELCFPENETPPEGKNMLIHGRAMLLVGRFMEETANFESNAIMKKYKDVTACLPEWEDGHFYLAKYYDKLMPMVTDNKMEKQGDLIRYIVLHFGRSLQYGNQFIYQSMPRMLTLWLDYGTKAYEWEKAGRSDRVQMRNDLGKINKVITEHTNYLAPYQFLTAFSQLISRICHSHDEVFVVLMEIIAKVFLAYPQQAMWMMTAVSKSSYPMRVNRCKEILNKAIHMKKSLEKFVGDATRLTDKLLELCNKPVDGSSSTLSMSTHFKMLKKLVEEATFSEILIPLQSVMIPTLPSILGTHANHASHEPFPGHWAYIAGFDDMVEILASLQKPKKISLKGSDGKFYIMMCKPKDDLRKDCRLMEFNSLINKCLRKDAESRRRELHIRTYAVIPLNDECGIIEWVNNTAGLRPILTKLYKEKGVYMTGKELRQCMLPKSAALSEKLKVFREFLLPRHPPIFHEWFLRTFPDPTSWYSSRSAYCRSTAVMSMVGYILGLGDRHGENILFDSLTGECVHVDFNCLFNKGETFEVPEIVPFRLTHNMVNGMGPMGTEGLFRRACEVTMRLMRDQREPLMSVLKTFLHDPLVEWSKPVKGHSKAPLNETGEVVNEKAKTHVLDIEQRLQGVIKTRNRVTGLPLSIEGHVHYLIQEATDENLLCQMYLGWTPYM

SMILES: Cc1cccc(C(=O)N2CCc3c(N4CCOC[C@H]4C)nc(-c4cccc5[nH]ccc45)nc3C2(C)C)c1
IC50 [1]: 17 nM

SMILES: COC(=O)N1CCc2c(N3CCOC[C@H]3C)nc(-c3cccc4[nH]ccc34)nc2C1(C)C
IC50 [1]: 18 nM

SMILES: C[C@@H]1COCCN1c1nc(-c2cccc3[nH]ccc23)nc2c1CN(C(=O)C1CC1)CC2
IC50 [1]: 111 nM

SMILES: CCC(=O)N1CCc2c(N3CCOC[C@H]3C)nc(-c3cccc4[nH]ccc34)nc2C12CCC2
IC50 [1]: 23 nM

SMILES: C[C@@H]1COCCN1c1nc(-c2cccc3[nH]ccc23)nc2c1CCN(C(=O)CN(C)C)C2(C)C
IC50 [1]: 32 nM

SMILES: C[C@@H]1COCCN1c1nc(-c2cccc3[nH]ccc23)nc2c1CCN(C(=O)c1cccc(Cl)c1)C2(C)C
IC50 [1]: 43 nM

SMILES: C[C@@H]1COCCN1c1nc(-c2cccc3[nH]ccc23)nc2c1CCN(C(=O)c1cccc(F)c1)C2(C)C
half-life at 1 h, 1 µM (in vitro [4]): 23.4 min
IC50 [1]: 14 nM
CLint scaled at 1 h, 1 µM (in vitro [5]): 169 mL/min/kg
CLint scaled at 1 h, 1 µM (in vitro [6]): 107 mL/min/kg
microsomal CLint at 1 h, 1 µM (in vitro [7]): 179 µL/min/mg
microsomal CLint at 1 h, 1 µM (in vitro [8]): 59.6 µL/min/mg
IC50 (HT-29): 2580 nM
half-life at 1 h, 1 µM (in vitro [9]): 7.76 min
IC50 (LoVo [2]): 964 nM

SMILES: CCC(=O)N1CCc2c(nc(-c3cccc4[nH]ccc34)nc2N2CCOC[C@H]2C)C1
IC50 [1]: 38 nM

SMILES: CC(=O)N1CCc2c(N3CCOC[C@H]3C)nc(-c3cccc4[nH]ccc34)nc2C12CCC2
IC50 [1]: 35 nM

SMILES: CC(C)C(=O)N1CCc2c(N3CCOC[C@H]3C)nc(-c3cccc4[nH]ccc34)nc2C12CCC2
IC50 [1]: 29 nM

SMILES: C[C@@H]1COCCN1c1nc(-c2cccc3[nH]ccc23)nc2c1CCN(C(=O)c1ccc(C(F)(F)F)cc1)C2(C)C
IC50 [1]: > 100 nM

SMILES: C[C@@H]1COCCN1c1nc(-c2cccc3[nH]ccc23)nc2c1CCN(C(=O)c1ccc(F)cc1)C2(C)C
IC50 [1]: 18 nM

SMILES: CC(C)C(=O)N1CCc2c(nc(-c3cccc4[nH]ccc34)nc2N2CCOC[C@H]2C)C1
IC50 [1]: 15 nM

SMILES: C[C@@H]1COCCN1c1nc(-c2cccc3[nH]ccc23)nc2c1CCN(C(=O)C1CC1)C2
IC50 [1]: 14 nM

SMILES: COc1ccc(C(=O)N2CCc3nc(-c4cccc5[nH]ccc45)nc(N4CCOC[C@H]4C)c3C2)cc1
IC50 [1]: > 1100 nM

SMILES: COc1cc(C(=O)N2Cc3c(N4CCOC[C@H]4C)nc(-c4cccc5[nH]ccc45)nc3C2(C)C)cc(OC)c1OC
IC50 [1]: 19 nM

Now those with a lower IC50 [1], led by results:

IC50 [1]: 4 nM
IC50 (HT-29): 487 nM
IC50 (LoVo [2]): 147 nM
SMILES: C[C@@H]1COCCN1c1nc(-c2cccc3[nH]ccc23)nc2c1CN(C(=O)c1ccc3c(c1)OCCO3)C2(C)C

IC50 [1]: 8 nM
SMILES: C[C@@H]1COCCN1c1nc(-c2cccc3[nH]ccc23)nc2c1CN(C(=O)C1CC1)C2(C)C
Activity (LoVo [3]): <45%

IC50 [1]: 7 nM
SMILES: COc1ccc(C(=O)N2Cc3c(N4CCOC[C@H]4C)nc(-c4cccc5[nH]ccc45)nc3C2(C)C)cc1OC

IC50 [1]: 5 nM
SMILES: C[C@@H]1COCCN1c1nc(-c2cccc3[nH]ccc23)nc2c1CN(C(=O)c1ccc(OC(F)F)cc1)C2(C)C
Activity (LoVo [3]): <45%

IC50 [1]: 8 nM
SMILES: C[C@@H]1COCCN1c1nc(-c2cccc3[nH]ccc23)nc2c1CCN(C(=O)C1CC1)C2(C)C

IC50 [1]: 9 nM
SMILES: COc1ccc(C(=O)N2CCc3c(N4CCOC[C@H]4C)nc(-c4cccc5[nH]ccc45)nc3C2(C)C)cc1

half-life at 1 h, 1 µM (in vitro [4]): 18.1 min
MRT inf [10]: 11.3 h
MRT last at 24 h [11]: 7.08 h
Cmax [12]: 83.1 ng/mL
MRT last at 24 h [13]: 2.99 h
IC50 [1]: 3 nM
half-life [14]: 181 min
CLint scaled at 1 h, 1 µM (in vitro [5]): 139 mL/min/kg
CLint scaled at 1 h, 1 µM (in vitro [6]): 138 mL/min/kg
Tmax [15]: 1 h
Vd [16]: 2.23 L/kg
AUC(0-t) at 24 h [17]: 452 ng·h/mL
microsomal CLint at 1 h, 1 µM (in vitro [7]): 147 µL/min/mg
bioavailability [18]: 6.3%
microsomal CLint at 1 h, 1 µM (in vitro [8]): 76.6 µL/min/mg
IC50 (HT-29): 387 nM
half-life at 1 h, 1 µM (in vitro [9]): 9.46 min
clearance [19]: 11.3 mL/min/kg
AUC(0-inf) [20]: 729 ng·h/mL
MRT inf [21]: 3.3 h
IC50 (LoVo [2]): 128 nM
AUC(0-t) at 24 h [22]: 1440 ng·h/mL
AUC(0-inf) [23]: 1470 ng·h/mL
half-life [24]: 600 min
SMILES: COc1ccc(C(=O)N2Cc3c(N4CCOC[C@H]4C)nc(-c4cccc5[nH]ccc45)nc3C2(C)C)cc1

IC50 [1]: 9 nM
SMILES: C[C@@H]1COCCN1c1nc(-c2cccc3[nH]ccc23)nc2c1CCN(C(=O)Cc1cccs1)C2(C)C

IC50 [1]: 2 nM
SMILES: CC(=O)N1Cc2c(N3CCOC[C@H]3C)nc(-c3cccc4[nH]ccc34)nc2C1(C)C
Activity (LoVo [3]): <45%
